Measured values: ChEMBL document CHEMBL5537181 (J Med Chem, 2024)
Activity calls are given as the source filed them. The calls are words filed in the database; no cut-off is given here. Where a SMILES comes first, the peptide text is derived from it. Bridges are numbered along the chain shown (N, C = ends).

Columns and labels:
[1] = target: Neuronal acetylcholine receptor; alpha9/alpha10 (Homo sapiens) (UniProt Q9UGM1+Q9GZZ6); experiment: Antagonist activity at human wild type alpha9alpha10 nAChR expressed in acetylcholine-induced Xenopus laevis oocytes assessed as inhibition of acetylcholine-induced current at 30 nM by two electrode voltage-clamp assay relative to control; assay type: cell-based; conditions: Oocyte
[2] = target: Voltage-dependent N-type calcium channel subunit alpha-1B (Homo sapiens, UniProt Q00975); experiment: Inhibition of human Cav2.2 channel transfected in HEK293T cells co-expressed with human GABAB receptor assessed as inhibition of Cav2.2-mediated Ba2+ current at 100 nM measured for 3 to 5 days by whole-cell patch clamp assay; assay type: cell-based; conditions: time 3-5 day
Chain of Voltage-dependent N-type calcium channel subunit alpha-1B (Q00975 whole entry, looked up): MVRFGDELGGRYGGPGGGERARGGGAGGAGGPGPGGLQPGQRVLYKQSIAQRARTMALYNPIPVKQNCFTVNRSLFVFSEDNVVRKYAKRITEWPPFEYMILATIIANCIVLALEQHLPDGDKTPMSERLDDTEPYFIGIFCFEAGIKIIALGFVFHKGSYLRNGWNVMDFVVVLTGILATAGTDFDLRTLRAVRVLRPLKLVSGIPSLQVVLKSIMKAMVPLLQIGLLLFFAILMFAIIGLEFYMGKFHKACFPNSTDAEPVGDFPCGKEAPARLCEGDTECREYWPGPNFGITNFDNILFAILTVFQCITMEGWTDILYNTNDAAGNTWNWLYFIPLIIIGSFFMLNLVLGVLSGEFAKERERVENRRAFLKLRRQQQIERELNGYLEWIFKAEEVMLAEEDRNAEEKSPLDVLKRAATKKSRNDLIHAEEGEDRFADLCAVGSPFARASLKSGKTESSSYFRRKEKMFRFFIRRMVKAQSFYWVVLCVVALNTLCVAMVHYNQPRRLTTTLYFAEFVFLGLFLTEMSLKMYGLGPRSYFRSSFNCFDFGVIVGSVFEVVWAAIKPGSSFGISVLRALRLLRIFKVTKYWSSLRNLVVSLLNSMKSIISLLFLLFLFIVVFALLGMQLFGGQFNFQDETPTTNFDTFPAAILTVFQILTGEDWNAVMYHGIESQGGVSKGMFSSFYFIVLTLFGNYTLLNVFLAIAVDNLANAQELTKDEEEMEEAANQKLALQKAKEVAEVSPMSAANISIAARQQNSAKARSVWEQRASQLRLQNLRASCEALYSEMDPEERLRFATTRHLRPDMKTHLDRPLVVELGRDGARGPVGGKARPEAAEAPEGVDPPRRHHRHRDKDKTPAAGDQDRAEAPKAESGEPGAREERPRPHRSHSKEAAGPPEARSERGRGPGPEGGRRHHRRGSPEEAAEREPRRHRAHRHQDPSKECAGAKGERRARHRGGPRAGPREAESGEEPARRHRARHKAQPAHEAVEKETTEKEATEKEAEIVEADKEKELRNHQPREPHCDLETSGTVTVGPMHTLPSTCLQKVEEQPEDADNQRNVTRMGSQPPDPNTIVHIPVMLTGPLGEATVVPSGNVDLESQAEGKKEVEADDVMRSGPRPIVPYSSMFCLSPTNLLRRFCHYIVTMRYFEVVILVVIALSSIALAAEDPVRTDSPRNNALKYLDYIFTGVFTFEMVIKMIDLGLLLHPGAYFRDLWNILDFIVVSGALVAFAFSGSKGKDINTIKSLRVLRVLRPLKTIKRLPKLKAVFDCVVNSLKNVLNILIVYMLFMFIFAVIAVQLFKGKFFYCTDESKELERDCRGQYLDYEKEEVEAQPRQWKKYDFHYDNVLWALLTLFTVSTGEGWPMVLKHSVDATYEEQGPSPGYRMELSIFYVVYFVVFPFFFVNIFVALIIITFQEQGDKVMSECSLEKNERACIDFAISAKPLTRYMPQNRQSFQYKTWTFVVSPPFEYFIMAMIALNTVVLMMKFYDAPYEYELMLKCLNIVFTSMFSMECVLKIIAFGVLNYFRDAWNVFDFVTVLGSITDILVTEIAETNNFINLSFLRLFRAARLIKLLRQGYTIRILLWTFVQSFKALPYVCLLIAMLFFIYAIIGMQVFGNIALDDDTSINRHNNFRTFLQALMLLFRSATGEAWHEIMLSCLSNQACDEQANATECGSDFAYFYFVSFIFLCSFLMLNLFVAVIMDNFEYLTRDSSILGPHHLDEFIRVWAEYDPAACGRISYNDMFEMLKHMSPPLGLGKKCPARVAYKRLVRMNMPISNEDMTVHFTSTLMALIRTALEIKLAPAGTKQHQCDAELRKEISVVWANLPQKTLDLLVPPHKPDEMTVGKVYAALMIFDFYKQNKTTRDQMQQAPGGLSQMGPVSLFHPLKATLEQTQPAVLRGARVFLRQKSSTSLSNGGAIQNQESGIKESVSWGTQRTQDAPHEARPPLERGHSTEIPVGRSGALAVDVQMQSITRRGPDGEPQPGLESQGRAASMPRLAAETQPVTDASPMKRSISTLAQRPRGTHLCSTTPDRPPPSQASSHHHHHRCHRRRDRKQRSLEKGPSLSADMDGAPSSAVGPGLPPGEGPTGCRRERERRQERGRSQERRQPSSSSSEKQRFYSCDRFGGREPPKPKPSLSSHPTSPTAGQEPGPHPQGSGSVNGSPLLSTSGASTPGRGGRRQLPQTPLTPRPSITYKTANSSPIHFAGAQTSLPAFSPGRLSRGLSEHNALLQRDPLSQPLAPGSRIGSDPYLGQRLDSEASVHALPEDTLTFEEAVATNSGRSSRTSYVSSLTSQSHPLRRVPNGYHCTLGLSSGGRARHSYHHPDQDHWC

Row | Compound | inhibition [1] | inhibition [2] | inhibition ([1]; filed as antagonist)
1 | CC[C@@H](C)[C@@H](NC(=O)[C@@H](CCCNC(=N)N)NC(=O)[C@@H](CCCNC(=N)N)NC(=O)[C@@H](Cc1ccc(O)cc1)NC(=O)[C@@H](CCCNC(=N)N)NC(=O)[C@@H](CCCNC(=N)N)NC(=O)[C@@H](CCCNC(=N)N)NC(=O)[C@@H](CCCNC(=N)N)NC(=O)[C@@H](CC(=O)O)NC(=O)[C@@H](Cc1ccc(O)cc1)NC(=O)[C@H]1CCCN1C(=O)[C@@H](CO)NC(=O)[C@@H](CCCNC(=N)N)NC(=O)[C@@H](Cc1ccc(O)cc1)NC(=O)[C@@H](CCCNC(=N)N)NC(=O)CN)C(=O)N[C@@H](C(=O)N[C@H](CC(=O)O)C(N)=O)[C@H](C)O | 25% | – | –
2 | N=C(N)NCCC[C@@H]1NC(=O)[C@H](CCCNC(=N)N)NC(=O)[C@H](CCCNC(=N)N)NC(=O)[C@H](CCCNC(=N)N)NC(=O)[C@H](CC(=O)O)NC(=O)[C@H](Cc2ccc(O)cc2)NC(=O)[C@@H]2CCCN2C(=O)[C@H](CO)NC(=O)[C@H](CCCNC(=N)N)NC(=O)[C@@H](N)CSSC[C@@H](C(N)=O)NC(=O)[C@H](Cc2ccc(O)cc2)NC1=O (H-CRSPYDRRRRYC-NH2; disulfide 1-12) | 25% | – | –
3 | CC[C@H](C)[C@H](NC(=O)[C@H](CCCNC(=N)N)NC(=O)[C@H](CCCNC(=N)N)NC(=O)[C@@H]1CSSC[C@H](N)C(=O)N[C@@H](CCCNC(=N)N)C(=O)N[C@@H](CO)C(=O)N2CCC[C@H]2C(=O)N[C@@H](Cc2ccc(O)cc2)C(=O)N[C@@H](CC(=O)O)C(=O)N[C@@H](CCCNC(=N)N)C(=O)N[C@@H](CCCNC(=N)N)C(=O)N[C@@H](CCCNC(=N)N)C(=O)N[C@@H](CCCNC(=N)N)C(=O)N[C@@H](Cc2ccc(O)cc2)C(=O)N1)C(=O)N[C@H](C(=O)N[C@@H](CC(=O)O)C(N)=O)[C@@H](C)O (H-CRSPYDRRRRYCRRITD-NH2; disulfide 1-12) | 25% | – | –
4 | CC[C@H](C)[C@H](NC(=O)[C@H](CCCNC(=N)N)NC(=O)[C@H](CCCNC(=N)N)NC(=O)[C@@H]1CSSC[C@H](NC(=O)[C@H](Cc2ccc(O)cc2)NC(=O)[C@H](CCCNC(=N)N)NC(=O)CN)C(=O)N[C@@H](CCCNC(=N)N)C(=O)N[C@@H](CO)C(=O)N2CCC[C@H]2C(=O)N[C@@H](Cc2ccc(O)cc2)C(=O)N[C@@H](CC(=O)O)C(=O)N[C@@H](CCCNC(=N)N)C(=O)N[C@@H](CCCNC(=N)N)C(=O)N[C@@H](CCCNC(=N)N)C(=O)N[C@@H](CCCNC(=N)N)C(=O)N[C@@H](Cc2ccc(O)cc2)C(=O)N1)C(=O)N[C@H](C(=O)N[C@@H](CC(=O)O)C(N)=O)[C@@H](C)O (H-GRYCRSPYDRRRRYCRRITD-NH2; disulfide 4-15) | 25% | – | –
5 | CC[C@H](C)[C@H](NC(=O)[C@H](CCCNC(=N)N)NC(=O)[C@H](CCCNC(=N)N)NC(=O)[C@@H]1CSSC[C@H](NC(=O)[C@H](Cc2ccc(O)cc2)NC(=O)[C@@H](N)CCCNC(=N)N)C(=O)N[C@@H](CCCNC(=N)N)C(=O)N[C@@H](CO)C(=O)N2CCC[C@H]2C(=O)N[C@@H](Cc2ccc(O)cc2)C(=O)N[C@@H](CC(=O)O)C(=O)N[C@@H](CCCNC(=N)N)C(=O)N[C@@H](CCCNC(=N)N)C(=O)N[C@@H](CCCNC(=N)N)C(=O)N[C@@H](CCCNC(=N)N)C(=O)N[C@@H](Cc2ccc(O)cc2)C(=O)N1)C(=O)N[C@H](C(=O)N[C@@H](CC(=O)O)C(N)=O)[C@@H](C)O (H-RYCRSPYDRRRRYCRRITD-NH2; disulfide 3-14) | 25% | – | –
6 | CC[C@H](C)[C@H](NC(=O)[C@H](CCCNC(=N)N)NC(=O)[C@H](CCCNC(=N)N)NC(=O)[C@@H]1CSSC[C@H](NC(=O)[C@@H](N)Cc2ccc(O)cc2)C(=O)N[C@@H](CCCNC(=N)N)C(=O)N[C@@H](CO)C(=O)N2CCC[C@H]2C(=O)N[C@@H](Cc2ccc(O)cc2)C(=O)N[C@@H](CC(=O)O)C(=O)N[C@@H](CCCNC(=N)N)C(=O)N[C@@H](CCCNC(=N)N)C(=O)N[C@@H](CCCNC(=N)N)C(=O)N[C@@H](CCCNC(=N)N)C(=O)N[C@@H](Cc2ccc(O)cc2)C(=O)N1)C(=O)N[C@H](C(=O)N[C@@H](CC(=O)O)C(N)=O)[C@@H](C)O (H-YCRSPYDRRRRYCRRITD-NH2; disulfide 2-13) | 25% | – | –
7 | CC[C@H](C)[C@@H]1NC(=O)[C@H](CCCNC(=N)N)NC(=O)[C@H](CCCNC(=N)N)NC(=O)[C@@H]2CSSC[C@H](NC(=O)[C@H](Cc3ccc(O)cc3)NC(=O)[C@H](CCCNC(=N)N)NC(=O)CNC(=O)[C@H](CC(=O)O)NC(=O)[C@H]([C@@H](C)O)NC1=O)C(=O)N[C@@H](CCCNC(=N)N)C(=O)N[C@@H](CO)C(=O)N1CCC[C@H]1C(=O)N[C@@H](Cc1ccc(O)cc1)C(=O)N[C@@H](CC(=O)O)C(=O)N[C@@H](CCCNC(=N)N)C(=O)N[C@@H](CCCNC(=N)N)C(=O)N[C@@H](CCCNC(=N)N)C(=O)N[C@@H](CCCNC(=N)N)C(=O)N[C@@H](Cc1ccc(O)cc1)C(=O)N2 (cyclo(CRRITDGRYCRSPYDRRRRY); disulfide 1-10) | 25% | – | –
8 | H-ARYRSPYDRRRRYRRITD-NH2 | 20% | – | –
9 | H-DRYRSPYDRRRRYRRITD-NH2 | 0% | – | –
10 | H-GAYRSPYDRRRRYRRITD-NH2 | 20% | – | –
11 | H-GDYRSPYDRRRRYRRITD-NH2 | 0% | – | –
12 | H-GRARSPYDRRRRYRRITD-NH2 | 20% | 10% | –
13 | H-GRDRSPYDRRRRYRRITD-NH2 | – | – | Active
14 | H-GRRRSPYDRRRRYRRITD-NH2 | 10% | – | –
15 | H-GRYAAPYDRRRRYRRITD-NH2 | 20% | – | –
16 | H-GRYASPYDRRRRYRRITD-NH2 | 20% | – | –
17 | H-GRYDSPYDRRRRYRRITD-NH2 | 0% | – | –
18 | H-GRYRDPYDRRRRYRRITD-NH2 | 0% | – | –
19 | H-GRYRRPYDRRRRYRRITD-NH2 | – | – | > 80%
20 | H-GRYRSAYDRRRRYRRITD-NH2 | 20% | – | –
21 | H-GRYRSDYDRRRRYRRITD-NH2 | 0% | – | –
22 | H-GRYRSPADRRRRYRRITD-NH2 | 20% | 60% | –
23 | H-GRYRSPDDRRRRYRRITD-NH2 | – | – | Active
24 | H-GRYRSPRDRRRRYRRITD-NH2 | 10% | – | –
25 | H-GRYRSPYARRRRYRRITD-NH2 | 20% | 50% | –
26 | H-GRYRSPYDARRRYRRITD-NH2 | 20% | 50% | –

Row | Compound | inhibition [1] | inhibition [2] | inhibition ([1]; filed as antagonist)
27 | H-GRYRSPYDDRRRYRRITD-NH2 | 0% | – | –
28 | H-GRYRSPYDRARRYRRITD-NH2 | 20% | – | –
29 | H-GRYRSPYDRDRRYRRITD-NH2 | 0% | – | –
30 | H-GRYRSPYDRRARYRRITD-NH2 | – | – | Active
31 | H-GRYRSPYDRRDRYRRITD-NH2 | 0% | – | –
32 | H-GRYRSPYDRRRAYRRITD-NH2 | – | 10% | Active
33 | H-GRYRSPYDRRRDYRRITD-NH2 | 0% | – | –
34 | H-GRYRSPYDRRRRARRITD-NH2 | – | – | Active
35 | H-GRYRSPYDRRRRDRRITD-NH2 | 0% | – | –
36 | H-GRYRSPYDRRRRRRRITD-NH2 | inactive | – | –
37 | H-GRYRSPYDRRRRYARITD-NH2 | – | 10% | Active
38 | H-GRYRSPYDRRRRYDRITD-NH2 | 0% | – | –
39 | H-GRYRSPYDRRRRYRAITD-NH2 | 20% | – | –
40 | H-GRYRSPYDRRRRYRDDTD-NH2 | 0% | – | –
41 | H-GRYRSPYDRRRRYRDIDD-NH2 | 0% | – | –
42 | H-GRYRSPYDRRRRYRDITD-NH2 | 0% | – | –
43 | H-GRYRSPYDRRRRYRRATD-NH2 | 20% | 80% | –
44 | H-GRYRSPYDRRRRYRRIAD-NH2 | 20% | – | –
45 | H-GRYRSPYDRRRRYRRIRD-NH2 | 10% | – | –
46 | H-GRYRSPYDRRRRYRRITA-NH2 | 20% | 10% | –
47 | H-GRYRSPYDRRRRYRRITR-NH2 | inactive | – | –
48 | H-GRYRSPYDRRRRYRRRTD-NH2 | – | – | > 80%
49 | H-GRYRSPYRRRRRYRRITD-NH2 | 10% | – | –
50 | H-GRYRSRYDRRRRYRRITD-NH2 | 10% | – | –
51 | H-RRYRSPYDRRRRYRRITD-NH2 | 10% | – | –
